# Source: ChEMBL document CHEMBL4477231, “Design, synthesis and antiproliferative activity studies of novel dithiocarbamate-chalcone derivates” (Bioorg Med Chem Lett, 2016)
# Active and inactive are the calls of the source. No cut-off for these calls is given here.
# Assays:
# SK-N-SH [1] = assay: Cytotoxicity against human SK-N-SH cells assessed as cell growth inhibition after 72 hrs by MTT assay; type: functional, cell-based
# ECa-109 cell line = assay: Cytotoxicity against human EC109 cells assessed as cell growth inhibition after 72 hrs by MTT assay; type: functional, cell-based; details: ECa-109, 72 h
# MGC-803 = assay: Cytotoxicity against human MGC803 cells assessed as cell growth inhibition after 72 hrs by MTT assay; type: functional, cell-based; details: MGC-803, 72 h
# GES1 = assay: Cytotoxicity against human GES-1 cells assessed as reduction in cell viability after 72 hrs by MTT assay; type: cell-based; details: GES1, 72 h
# SK-N-SH [2] = assay: Cell cycle arrest in human SK-N-SH cells assessed as accumulation at S phase at 5 uM after 24 hrs by propidium iodide staining based flow cytometry (reference value: 30.91 %); type: functional
# SK-N-SH [3] = assay: Induction of apoptosis in human SK-N-SH cells assessed as reduction in procaspase-3 level at 2.5 to 5 uM after 48 hrs; type: functional, cell-based
# SK-N-SH [4] = assay: Cell cycle arrest in human SK-N-SH cells assessed as accumulation at G0/G1 phase at 2.5 uM after 48 hrs by propidium iodide staining based flow cytometry (reference value: 54.35 %); type: functional
# SK-N-SH [5] = assay: Induction of apoptosis in human SK-N-SH cells at 5 uM by Annexin V-FITC/propidium iodide staining based flow cytometry; type: functional, cell-based; details: TDE = time-dependent effect
# SK-N-SH [6] = assay: Cell cycle arrest in human SK-N-SH cells assessed as accumulation at G0/G1 phase at 5 uM after 24 hrs by propidium iodide staining based flow cytometry (reference value: 50.26 %); type: functional
# SK-N-SH [7] = assay: Cell cycle arrest in human SK-N-SH cells assessed as accumulation at S phase at 2.5 uM after 24 hrs by propidium iodide staining based flow cytometry (reference value: 30.91 %); type: functional
# SK-N-SH [8] = assay: Cell cycle arrest in human SK-N-SH cells assessed as accumulation at G0/G1 phase at 5 uM after 48 hrs by propidium iodide staining based flow cytometry (reference value: 54.35 %); type: functional
# SK-N-SH [9] = assay: Cell cycle arrest in human SK-N-SH cells assessed as accumulation at G2/M phase at 2.5 uM after 24 hrs by propidium iodide staining based flow cytometry (reference value: 17 %); type: functional
# SK-N-SH [10] = assay: Induction of apoptosis in human SK-N-SH cells at 5 uM after 48 hrs by Annexin V-FITC/propidium iodide staining based flow cytometry relative to control; type: functional
# SK-N-SH [11] = assay: Induction of apoptosis in human SK-N-SH cells assessed as chromatin shrinkage at 5 uM after 24 to 48 hrs by Hoechst 33258 staining based fluorescence microscopy; type: functional, cell-based
# SK-N-SH [12] = assay: Cell cycle arrest in human SK-N-SH cells assessed as accumulation at G2/M phase at 5 uM after 24 hrs by propidium iodide staining based flow cytometry (reference value: 17 %); type: functional
# SK-N-SH [13] = assay: Cell cycle arrest in human SK-N-SH cells assessed as accumulation at G2/M phase at 5 uM after 48 hrs by propidium iodide staining based flow cytometry (reference value: 18.35 %); type: functional
# SK-N-SH [14] = assay: Cell cycle arrest in human SK-N-SH cells assessed as accumulation at S phase at 5 uM after 48 hrs by propidium iodide staining based flow cytometry (reference value: 27.41 %); type: functional
# SK-N-SH [15] = assay: Cell cycle arrest in human SK-N-SH cells assessed as accumulation at G2/M phase at 2.5 uM after 48 hrs by propidium iodide staining based flow cytometry (reference value: 18.35 %); type: functional
# SK-N-SH [16] = assay: Cell cycle arrest in human SK-N-SH cells assessed as accumulation at S phase at 2.5 uM after 48 hrs by propidium iodide staining based flow cytometry (reference value: 27.41 %); type: functional
# SK-N-SH [17] = assay: Induction of apoptosis in human SK-N-SH cells assessed as increase in p53 expression at 2.5 to 5 uM after 48 hrs; type: functional, cell-based
# SK-N-SH [18] = assay: Induction of apoptosis in human SK-N-SH cells assessed as round cells at 5 uM after 24 to 48 hrs by Hoechst 33258 staining based fluorescence microscopy; type: functional, cell-based
# SK-N-SH [19] = assay: Induction of apoptosis in human SK-N-SH cells assessed as formation of apoptotic bodies at 5 uM after 24 to 48 hrs by Hoechst 33258 staining based fluorescence microscopy; type: functional, cell-based
# SK-N-SH [20] = assay: Cell cycle arrest in human SK-N-SH cells assessed as accumulation at G0/G1 phase at 2.5 uM after 24 hrs by propidium iodide staining based flow cytometry (reference value: 50.26 %); type: functional
# SK-N-SH [21] = assay: Induction of apoptosis in human SK-N-SH cells at 5 uM after 24 hrs by Annexin V-FITC/propidium iodide staining based flow cytometry relative to control; type: functional
compound,measurement,setting,value
CN1CCN(C(=S)SCCCOc2ccc(C(=O)/C=C/c3cc(Cl)cc(Cl)c3)cc2)CC1,IC50,SK-N-SH [1],24.6 µM
same,IC50,ECa-109 cell line,12.4 µM
same,IC50,MGC-803,19.4 µM
O=c1[nH]cc(F)c(=O)[nH]1 [FLUOROURACIL],IC50,SK-N-SH [1],9.84 µM
same,IC50,MGC-803,7.21 µM
COc1cc(/C=C/C(=O)c2ccc(OCCSC(=S)N3CCCC3)cc2)cc(OC)c1OC,IC50,SK-N-SH [1],12.1 µM
same,IC50,ECa-109 cell line,10.7 µM
same,IC50,MGC-803,31.7 µM
O=C(/C=C/c1cc(F)cc(F)c1)c1ccc(OCCCSC(=S)N2CCCC2)cc1,IC50,SK-N-SH [1],36.1 µM
same,IC50,ECa-109 cell line,28.8 µM
same,IC50,MGC-803,28.4 µM
O=C(/C=C/c1ccc(Cl)cc1)c1ccc(OCCCSC(=S)N2CCCC2)cc1,IC50,SK-N-SH [1],19.1 µM
same,IC50,ECa-109 cell line,18.6 µM
same,IC50,MGC-803,34.5 µM
COc1cc(/C=C/C(=O)c2ccc(OCCCSC(=S)N3CCCC3)cc2)cc(OC)c1OC,IC50,SK-N-SH [1],12.8 µM
same,IC50,ECa-109 cell line,11.1 µM
same,IC50,MGC-803,14.5 µM
COc1cc(/C=C/C(=O)c2ccc(OCCSC(=S)N3CCN(C)CC3)cc2)cc(OC)c1OC,IC50,SK-N-SH [1],2.46 µM
same,IC50,ECa-109 cell line,10 µM
same,IC50,MGC-803,8.28 µM
same,IC50,GES1,> 64 µM
CN1CCN(C(=S)SCCCOc2ccc(C(=O)/C=C/c3cc(F)cc(F)c3)cc2)CC1,IC50,SK-N-SH [1],13.2 µM
same,IC50,ECa-109 cell line,14.5 µM
same,IC50,MGC-803,16.3 µM
O=C(/C=C/c1ccc(Cl)cc1)c1ccc(OCCSC(=S)N2CCCC2)cc1,IC50,SK-N-SH [1],18.3 µM
same,IC50,ECa-109 cell line,27.8 µM
same,IC50,MGC-803,47.9 µM
O=C(/C=C/c1cccs1)c1ccc(OCCSC(=S)N2CCCC2)cc1,IC50,SK-N-SH [1],19.1 µM
same,IC50,ECa-109 cell line,18.2 µM
same,IC50,MGC-803,32.4 µM
O=C(/C=C/c1ccc(Cl)cc1)c1ccc(OCCSC(=S)N2CCCCC2)cc1,IC50,SK-N-SH [1],27.4 µM
same,IC50,ECa-109 cell line,26.1 µM
same,IC50,MGC-803,12.8 µM
O=C(/C=C/c1cccnc1)c1ccc(OCCCSC(=S)N2CCCC2)cc1,IC50,SK-N-SH [1],24.5 µM
same,IC50,ECa-109 cell line,29.8 µM
same,IC50,MGC-803,19.5 µM
O=C(/C=C/c1ccc(Cl)cc1)c1ccc(OCCSC(=S)N2CCOCC2)cc1,IC50,SK-N-SH [1],11.7 µM
same,IC50,ECa-109 cell line,15.4 µM
same,IC50,MGC-803,11.5 µM
COc1ccc(/C=C/C(=O)c2ccc(OCCCSC(=S)N3CCN(C)CC3)cc2)cc1,IC50,SK-N-SH [1],29.5 µM
same,IC50,ECa-109 cell line,> 100 µM
same,IC50,MGC-803,19.4 µM
COc1cc(/C=C/C(=O)c2ccc(OCCCSC(=S)N3CCN(C)CC3)cc2)cc(OC)c1OC,Activity,SK-N-SH [2],25.26%
same,IC50,SK-N-SH [1],2.03 µM
same,IC50,ECa-109 cell line,7.43 µM
same,Activity,SK-N-SH [3],Active
same,Activity,SK-N-SH [4],59.64%
same,Activity,SK-N-SH [5],Tde
same,Activity,SK-N-SH [6],68.19%
same,Activity,SK-N-SH [7],31.19%
same,Activity,SK-N-SH [8],74.85%
same,Activity,SK-N-SH [9],18.55%
same,Activity,SK-N-SH [10],36.8%
same,Activity,SK-N-SH [11],Active
same,Activity,SK-N-SH [12],6.11%
same,Activity,SK-N-SH [13],10.54%
same,IC50,MGC-803,7.37 µM
same,Activity,SK-N-SH [14],14.22%
same,Activity,SK-N-SH [15],13.81%
same,Activity,SK-N-SH [16],26.02%
same,Activity,SK-N-SH [17],Active
same,Activity,SK-N-SH [18],Active
same,Activity,SK-N-SH [19],Active
same,Activity,SK-N-SH [20],50.03%
same,Activity,SK-N-SH [21],20.6%
same,IC50,GES1,> 64 µM
O=C(/C=C/c1ccc(Cl)cc1)c1ccc(OCCCSC(=S)N2CCCCC2)cc1,IC50,SK-N-SH [1],32.2 µM
same,IC50,ECa-109 cell line,42.6 µM
same,IC50,MGC-803,56.8 µM
O=C(/C=C/c1cccs1)c1ccc(OCCCSC(=S)N2CCCCC2)cc1,IC50,SK-N-SH [1],38.2 µM
same,IC50,ECa-109 cell line,36.4 µM
same,IC50,MGC-803,41.3 µM
COc1cc(/C=C/C(=O)c2ccc(OCCSC(=S)N3CCCCC3)cc2)cc(OC)c1OC,IC50,SK-N-SH [1],48.4 µM
same,IC50,ECa-109 cell line,38.9 µM
same,IC50,MGC-803,41.3 µM
CN1CCN(C(=S)SCCCOc2ccc(C(=O)/C=C/c3ccc(Cl)cc3)cc2)CC1,IC50,SK-N-SH [1],31.9 µM
same,IC50,ECa-109 cell line,34.2 µM
same,IC50,MGC-803,29.4 µM
